In ChEMBL document CHEMBL4376803, “Recent Advances in the Exploration of Therapeutic Analogues of Gramicidin S, an Old but Still Potent Antimicrobial Peptide” (J Med Chem, 2019):
Values after ≈ are worked out from the molar mass of the structure shown. Square brackets hold non-standard residues; d marks the D form. Peptide text beside a SMILES is read from it.

Legend:
Enterococcus faecalis [1] = test: Antibacterial activity against Enterococcus faecalis 1131 after 24 hrs by broth dilution method; type: functional; details: Enterococcus faecalis, 1131, 24 h
Pseudomonas aeruginosa [2] = test: Antibacterial activity against Pseudomonas aeruginosa ATCC 19582 after 24 hrs by broth dilution method; type: functional; details: ATCC 19582, 24 h
[3] = Hemolytic activity against RBC (unknown origin) at 100 ul after 4 hrs; type: ADME, cell-based, Erythrocyte; details: red blood cells (unknown origin)
Staphylococcus aureus [4] = test: Antibacterial activity against Staphylococcus aureus 7323; type: functional
Escherichia coli [5] = test: Antibacterial activity against Escherichia coli ATCC 25922 after 24 hrs by broth dilution method; type: functional; details: ATCC 25922, 24 h
[6] = Haemolytic activity in human erythrocytes incubated for 30 mins; type: ADME, cell-based, Erythrocyte
Escherichia coli [7] = test: Antibacterial activity against Escherichia coli K-12 strain W3110 incubated for 20 hrs by liquid microdilution method; type: functional; details: K-12 substr. W3110, 20 h
Staphylococcus aureus [8] = test: Antibacterial activity against Staphylococcus aureus 209P incubated for 20 hrs by liquid microdilution method; type: functional
Pseudomonas aeruginosa [9] = test: Antibacterial activity against Pseudomonas aeruginosa NBRC 3080 after overnight incubation by microplate dilution method; type: functional
Staphylococcus aureus [10] = test: Antibacterial activity against Staphylococcus aureus NBRC 12732 after overnight incubation by microplate dilution method; type: functional
Escherichia coli [11] = test: Antibacterial activity against Escherichia coli NBRC 12734 after overnight incubation by microplate dilution method; type: functional
Bacillus subtilis = test: Antibacterial activity against Bacillus subtilis NBRC 3513 after overnight incubation by microplate dilution method; type: functional
Priestia megaterium = test: Antibacterial activity against Bacillus megaterium ATCC 19213 after overnight incubation by microplate dilution method; type: functional
[12] = Hemolytic activity in sheep RBC incubated for 30 mins; type: ADME, cell-based, Ovis aries, Erythrocyte; details: sheep red blood cells
Staphylococcus aureus [13] = test: Antibacterial activity against Staphylococcus aureus ATCC 29213 after overnight incubation; type: functional
Enterococcus faecalis [14] = test: Antibacterial activity against Enterococcus faecalis ATCC 29212 after overnight incubation; type: functional
Escherichia coli [15] = test: Antibacterial activity against Escherichia coli ATCC 25922 after overnight incubation; type: functional
[16] = Therapeutic index, ratio of HD100 for hemolytic activity in human RBC to MIC against Staphylococcus aureus K147; type: toxicity; details: human red blood cells, read-out: TI
[17] = Therapeutic index, ratio of HD100 for hemolytic activity in human RBC to MIC against Pseudomonas aeruginosa H187; type: toxicity; details: human red blood cells, read-out: TI
[18] = Therapeutic index, ratio of HD100 for hemolytic activity in human RBC to MIC against Enterococcus faecalis ATCC 29212; type: toxicity; details: human red blood cells, read-out: TI
Pseudomonas aeruginosa [19] = test: Antibacterial activity against Pseudomonas aeruginosa H187 after overnight incubation by microtiter dilution method; type: functional
Erythrocyte = test: Haemolytic activity in human RBC after 4 hrs by visual method; type: ADME, cell-based
Staphylococcus aureus [20] = test: Antibacterial activity against Staphylococcus aureus K147 after overnight incubation by microtiter dilution method; type: functional
Escherichia coli [21] = test: Antibacterial activity against Escherichia coli UB1005 after overnight incubation by microtiter dilution method; type: functional
Enterococcus faecalis [22] = test: Antibacterial activity against Enterococcus faecalis ATCC 29212 after overnight incubation by microtiter dilution method; type: functional
[23] = Therapeutic index, ratio of HD100 for hemolytic activity in human RBC to MIC against Escherichia coli UB1005; type: toxicity; details: human red blood cells, read-out: TI
Lipopolysaccharide (LPS) = test: Displacement of Dansyl-polymyxin from Pseudomonas aeruginosa LPS by fluorescence method; details: read-out: I50
Candida albicans = test: Antibacterial activity against Candida albicans after overnight incubation by microtiter dilution method; type: functional

SMILES: CC(C)C[C@@H]1NC(=O)[C@H](CCCN)NC(=O)[C@H](C(C)C)NC(=O)[C@@H]2CCCN2C(=O)[C@@H](Cc2c[nH]nn2)NC(=O)[C@H](CC(C)C)NC(=O)[C@@H](CCCN)NC(=O)[C@H](C(C)C)NC(=O)[C@@H]2CCCN2C(=O)[C@@H](Cc2ccccc2)NC1=O
- MIC (Enterococcus faecalis [1]): 64 µg/mL (≈ 56.5 µM)
- MIC (Pseudomonas aeruginosa [2]): > 64 µg/mL
- HC50 at 4 h [3]: 45 to 55 µg/mL
- MIC (Staphylococcus aureus [4]): 16 µg/mL (≈ 14.1 µM)
- MIC (Escherichia coli [5]): 32 µg/mL (≈ 28.3 µM)

SMILES: CC(C)C[C@@H]1NC(=O)[C@H](CCCN)NC(=O)[C@H](C(C)C)NC(=O)[C@@H]2C[C@@H](N[C@@H](Cc3ccccc3)C(=O)O)CN2C(=O)[C@@H](Cc2ccccc2)NC(=O)[C@H](CC(C)C)NC(=O)[C@H](CCCN)NC(=O)[C@H](C(C)C)NC(=O)[C@@H]2C[C@@H](N[C@@H](Cc3ccccc3)C(=O)O)CN2C(=O)[C@@H](Cc2ccccc2)NC1=O [listing 1 of 2 here]
- HC50 at 0.5 h [6]: 20 to 50 µg/mL

SMILES: CC(C)C[C@@H]1NC(=O)[C@H](CCCN)NC(=O)[C@H](C(C)C)NC(=O)[C@@H]2C[C@@H](N)CN2C(=O)[C@@H](Cc2ccccc2)NC(=O)[C@H](CC(C)C)NC(=O)[C@H](CCCN)NC(=O)[C@H](C(C)C)NC(=O)[C@@H]2C[C@@H](N)CN2C(=O)[C@@H](Cc2ccccc2)NC1=O
- MIC (Escherichia coli [7]): 64 µg/mL (≈ 54.6 µM)
- MIC (Staphylococcus aureus [8]): 32 µg/mL (≈ 27.3 µM)

SMILES: CC(C)C[C@@H]1NC(=O)[C@H](CCCN)NC(=O)[C@H](C(C)C)NC(=O)[C@@H]2C[C@@H](N[C@@H](Cc3ccccc3)C(=O)O)CN2C(=O)[C@@H](Cc2ccccc2)NC(=O)[C@H](CC(C)C)NC(=O)[C@H](CCCN)NC(=O)[C@H](C(C)C)NC(=O)[C@@H]2C[C@@H](N[C@@H](Cc3ccccc3)C(=O)O)CN2C(=O)[C@@H](Cc2ccccc2)NC1=O [listing 2 of 2 here]
- MIC (Escherichia coli [7]): 16 µg/mL (≈ 10.9 µM)
- MIC (Staphylococcus aureus [8]): 8 µg/mL (≈ 5.45 µM)

SMILES: CC(C)C[C@@H]1NC(=O)[C@H](CCCN)NC(=O)[C@H](C(C)C)NC(=O)[C@@H]2CCCN2C(=O)[C@@H](CCCCN)NC(=O)[C@H](CC(C)C)NC(=O)[C@@H](CCCN)NC(=O)[C@H](C(C)C)NC(=O)[C@@H]2CCCN2C(=O)[C@@H](CCCCN)NC1=O
- MIC (Pseudomonas aeruginosa [9]): 12.5 µg/mL (≈ 11.3 µM)
- MIC (Staphylococcus aureus [10]): 3.13 µg/mL (≈ 2.84 µM)
- MIC (Escherichia coli [11]): 12.5 µg/mL (≈ 11.3 µM)
- MIC (Bacillus subtilis): 6.25 µg/mL (≈ 5.66 µM)
- MIC (Priestia megaterium): 3.13 µg/mL (≈ 2.84 µM)
- HC50 at 0.5 h [12]: 150 to 200 µg/mL

SMILES: CC(C)C[C@@H]1NC(=O)[C@H](CCCN)NC(=O)[C@H](C(C)C)NC(=O)[C@@H]2CCCN2C(=O)[C@@H](Cc2ccc(OCc3ccccc3)cc2)NC(=O)[C@H](CC(C)C)NC(=O)[C@@H](CCCN)NC(=O)[C@H](C(C)C)NC(=O)[C@@H]2CCCN2C(=O)[C@@H](Cc2ccc(OCc3ccccc3)cc2)NC1=O
- MIC (Staphylococcus aureus [13]): 8 µg/mL (≈ 5.91 µM)
- MIC (Enterococcus faecalis [14]): 8 µg/mL (≈ 5.91 µM)
- MIC (Escherichia coli [15]): 64 µg/mL (≈ 47.3 µM)

SMILES: CC(C)C[C@@H]1NC(=O)[C@H](CCCN)NC(=O)[C@H](C(C)C)NC(=O)[C@H](CCCCN)NC(=O)[C@@H](Cc2ccccc2)NC(=O)[C@H](CC(C)C)NC(=O)[C@@H](CCCN)NC(=O)[C@H](C(C)C)NC(=O)[C@H](CCCCN)NC(=O)[C@@H](Cc2ccccc2)NC1=O
- MIC (Pseudomonas aeruginosa [9]): 50 µg/mL (≈ 41.5 µM)
- MIC (Staphylococcus aureus [10]): 3.13 µg/mL (≈ 2.6 µM)
- MIC (Escherichia coli [11]): 25 µg/mL (≈ 20.8 µM)
- MIC (Bacillus subtilis): 6.25 µg/mL (≈ 5.19 µM)
- MIC (Priestia megaterium): 3.13 µg/mL (≈ 2.6 µM)
- HC50 at 0.5 h [12]: > 200 µg/mL

SMILES: CC(C)C[C@@H]1NC(=O)[C@H](CCCN)NC(=O)[C@H](C(C)C)NC(=O)[C@@H]2CCCN2C(=O)[C@@H](Cc2cn(Cc3cccc4ccccc34)nn2)NC(=O)[C@H](CC(C)C)NC(=O)[C@@H](CCCN)NC(=O)[C@H](C(C)C)NC(=O)[C@@H]2CCCN2C(=O)[C@@H](Cc2ccccc2)NC1=O
- MIC (Enterococcus faecalis [1]): 4 µg/mL (≈ 3.14 µM)
- MIC (Pseudomonas aeruginosa [2]): > 64 µg/mL
- HC50 at 4 h [3]: 5 to 10 µg/mL
- MIC (Staphylococcus aureus [4]): 4 µg/mL (≈ 3.14 µM)
- MIC (Escherichia coli [5]): 64 µg/mL (≈ 50.3 µM)

SMILES: CC(C)C[C@@H]1NC(=O)[C@H](CCCCN)NC(=O)[C@H](C(C)C)NC(=O)[C@@H]2CCCN2C(=O)[C@@H](Cc2ccc(O)cc2)NC(=O)[C@H](CC(C)C)NC(=O)[C@H](CCCCN)NC(=O)[C@H](C(C)C)NC(=O)[C@H](CCCCN)NC(=O)[C@H](CC(C)C)NC(=O)[C@@H]2CCCN2C(=O)[C@@H](Cc2ccc(O)cc2)NC(=O)[C@H](C(C)C)NC(=O)[C@H](CCCCN)NC1=O (cyclo(KLKV[dY]PLKVKL[dY]PV))
- selectivity ratio [16]: < 0.01
- selectivity ratio [17]: < 0.01
- selectivity ratio [18]: 0.7
- MIC (Pseudomonas aeruginosa [19]): > 200 µg/mL
- HD100 (Erythrocyte): 1.5 µg/mL
- MIC (Staphylococcus aureus [20]): > 200 µg/mL
- MIC (Escherichia coli [21]): > 200 µg/mL
- MIC (Enterococcus faecalis [22]): 2.3 µg/mL (≈ 1.38 µM)
- selectivity ratio [23]: < 0.01
- IC50 (Lipopolysaccharide (LPS)): 3000 nM
- MIC (Candida albicans): 175 µg/mL (≈ 105 µM)

SMILES: CC(C)C[C@@H]1NC(=O)[C@H](CCCN)NC(=O)[C@H](C(C)C)NC(=O)[C@@H]2CCCN2C(=O)[C@@H](Cc2ccccc2)NC(=O)[C@H](CC(C)C)NC(=O)[C@H](CCCN)NC(=O)[C@H](C(C)C)NC(=O)[C@@H]2CCCN2C(=O)NC(=O)[C@H](Cc2ccccc2)NC(=O)[C@H](CCCN)NC1=O
- MIC (Pseudomonas aeruginosa [9]): 100 µg/mL (≈ 77 µM)
- MIC (Staphylococcus aureus [10]): 3.13 µg/mL (≈ 2.41 µM)
- MIC (Escherichia coli [11]): 25 µg/mL (≈ 19.3 µM)
- MIC (Bacillus subtilis): 6.25 µg/mL (≈ 4.81 µM)
- MIC (Priestia megaterium): 3.13 µg/mL (≈ 2.41 µM)
- HC50 at 0.5 h [12]: 90 to 100 µg/mL
